Experimental findings from US4894388A, “Glycosidase inhibitors and use thereof” (priority 1988, dated 1990) are described below.

Assay type in all cases: biochemical
One test has as its system N-acetyl hexosaminidase. Nature of the test: Inhibition of N-acetyl hexosaminidase in human liver extract. Conditions: 1 mM inhibitor; 0.5 mM substrate; optimal pH; mean of 2-4 determinations. The method, then:
(§1) Post mortem human liver, which had been stored at -20° C. until required was homogenized in deionized water (50%, w/v) in a Potter-Elvehjem homogenizer and then centrifuged at 37,000 g for 30 min in an MSE 18 centrifuge. The resultant supernatant was used as the source of enzymic activities.
(§2) The glycosidase activities in an extract of normal human liver were assayed by using the appropriate fluorigenic 4-methylumbelliferyl glycoside substrate (Koch-Light, Haverhill, Suffolk, U.K.) with a concentration of 0.5 mM at the optimal pH of each enzyme [Burditt et al., Clin. Chim. Acta 140, 201-209 (1980)]. Human liver acidic (lysomal) and neutral (cystosolic) α-D-mannosidases were assayed similarly at their pH-optima, of 4.0 and 6.5, respectively, after separation by affinity chromatography on concanavalin A-Sepharose® (Pharmacia Ltd, Milton Keynes, Bucks, U.K.) [Phillips et al., Biochem. J. 153, 579-587 (1976)]. The residual intermediate (Golgi) α-mannosidase II activity in extracts of fibroblasts from a patient with the lysosomal storage disease, mannosidosis, was assayed at pH 5.75 using the synthetic substrate (Burditt et al, Ibid.). The specificity of the inhibitors was determined by assaying the glycosidases in the presence and absence of a 1 mM solution of each compound. The nature of the inhibition and the value of Ki were determined using the Dixon graphical procedure.
(§3) Enzymic activities were measured in the presence and absence of 1 mM inhibitor. Inhibition (%) was calculated as the fraction of activity lost in the presence of inhibitor. The values are means of two to four independent determinations.

The target in test [1] is T1, lysosomal (acidic) α-D-mannosidase (Homo sapiens, UniProt O00754).
T1 construct: Post mortem human liver, which had been stored at -20° C; from tissue; host or cells: post mortem human liver, 37,000 g supernatant; concanavalin A-Sepharose fraction
T1 sequence (O00754 50-1011): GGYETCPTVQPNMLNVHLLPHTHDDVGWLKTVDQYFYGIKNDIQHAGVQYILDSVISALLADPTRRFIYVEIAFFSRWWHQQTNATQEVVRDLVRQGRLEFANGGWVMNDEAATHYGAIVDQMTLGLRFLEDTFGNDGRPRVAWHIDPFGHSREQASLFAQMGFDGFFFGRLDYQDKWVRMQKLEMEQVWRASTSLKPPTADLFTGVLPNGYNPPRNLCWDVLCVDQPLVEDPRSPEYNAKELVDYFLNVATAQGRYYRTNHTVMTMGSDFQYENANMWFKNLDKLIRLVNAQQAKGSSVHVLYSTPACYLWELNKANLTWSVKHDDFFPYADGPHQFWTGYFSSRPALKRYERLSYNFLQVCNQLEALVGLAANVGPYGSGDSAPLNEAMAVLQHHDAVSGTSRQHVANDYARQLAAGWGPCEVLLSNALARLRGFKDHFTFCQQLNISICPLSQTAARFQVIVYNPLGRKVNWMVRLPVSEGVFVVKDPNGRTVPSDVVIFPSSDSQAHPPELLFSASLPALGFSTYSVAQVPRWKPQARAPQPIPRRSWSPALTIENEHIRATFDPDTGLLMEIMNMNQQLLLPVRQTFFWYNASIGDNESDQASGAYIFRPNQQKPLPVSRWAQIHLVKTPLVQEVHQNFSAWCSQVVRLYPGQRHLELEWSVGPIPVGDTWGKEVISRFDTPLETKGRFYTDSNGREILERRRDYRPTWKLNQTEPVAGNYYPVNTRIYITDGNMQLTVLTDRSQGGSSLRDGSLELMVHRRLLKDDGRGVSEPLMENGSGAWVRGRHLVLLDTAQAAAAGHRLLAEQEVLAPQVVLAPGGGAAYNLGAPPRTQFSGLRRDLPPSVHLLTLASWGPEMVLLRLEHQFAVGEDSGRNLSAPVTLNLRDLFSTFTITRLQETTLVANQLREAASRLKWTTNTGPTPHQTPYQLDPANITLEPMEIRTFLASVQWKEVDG
The test can be described thus: Inhibition of lysosomal (acidic) α-D-mannosidase, fluorigenic 4-methylumbelliferyl glycoside substrate. Conditions: for inhibition at 1000 µM: 1 mM inhibitor, 0.5 mM substrate, pH 4.0, mean of 2-4 determinations. The method, then: as §1, §2, §3

The target of the next test is T2, Golgi α-D-mannosidase II (Homo sapiens, UniProt Q16706).
T2 construct: activity in extracts of fibroblasts from a patient; endogenous in cells; host or cells: fibroblasts from a mannosidosis patient (extract)
T2 sequence (Q16706 1-1144): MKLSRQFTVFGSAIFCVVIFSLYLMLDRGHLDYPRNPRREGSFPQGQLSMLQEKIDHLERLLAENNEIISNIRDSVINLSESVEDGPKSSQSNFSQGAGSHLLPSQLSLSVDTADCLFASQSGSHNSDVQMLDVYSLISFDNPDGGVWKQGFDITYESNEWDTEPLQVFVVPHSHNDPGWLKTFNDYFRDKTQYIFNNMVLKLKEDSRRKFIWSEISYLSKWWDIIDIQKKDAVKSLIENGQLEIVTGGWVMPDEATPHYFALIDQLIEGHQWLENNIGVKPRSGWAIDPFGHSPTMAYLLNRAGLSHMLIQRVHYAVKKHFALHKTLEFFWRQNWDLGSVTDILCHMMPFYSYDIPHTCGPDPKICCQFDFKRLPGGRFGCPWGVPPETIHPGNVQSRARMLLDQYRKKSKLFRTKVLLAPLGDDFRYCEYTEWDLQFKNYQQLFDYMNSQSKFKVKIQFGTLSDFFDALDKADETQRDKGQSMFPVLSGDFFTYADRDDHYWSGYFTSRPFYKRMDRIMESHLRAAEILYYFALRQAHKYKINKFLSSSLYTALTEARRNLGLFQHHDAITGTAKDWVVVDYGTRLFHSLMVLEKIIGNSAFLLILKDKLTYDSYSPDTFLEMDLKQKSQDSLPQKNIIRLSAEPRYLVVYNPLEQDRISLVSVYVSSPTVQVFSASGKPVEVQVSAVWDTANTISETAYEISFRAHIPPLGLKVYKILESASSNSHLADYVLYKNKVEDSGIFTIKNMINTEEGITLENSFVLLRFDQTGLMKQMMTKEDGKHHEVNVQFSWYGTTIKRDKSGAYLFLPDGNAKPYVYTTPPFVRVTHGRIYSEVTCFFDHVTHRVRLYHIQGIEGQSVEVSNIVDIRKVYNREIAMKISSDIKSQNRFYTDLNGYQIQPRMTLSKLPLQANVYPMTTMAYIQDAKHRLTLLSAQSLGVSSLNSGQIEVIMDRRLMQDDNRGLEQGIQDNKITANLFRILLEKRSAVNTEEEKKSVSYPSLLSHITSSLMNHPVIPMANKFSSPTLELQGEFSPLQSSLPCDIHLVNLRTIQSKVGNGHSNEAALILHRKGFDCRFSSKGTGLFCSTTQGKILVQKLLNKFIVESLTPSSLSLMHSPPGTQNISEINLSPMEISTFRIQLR
Nature of the test: Inhibition of Golgi α-D-mannosidase II in extracts of fibroblasts from a mannosidosis patient. Conditions: for inhibition at 1000 µM: 1 mM inhibitor, pH 5.75, mean of 2-4 determinations. The protocol:
as §2, §3

On to `CN1C[C@@H](O)[C@@H](O)[C@@H]1[C@@H](O)CO` [N-methyl DIA, N-methyl-1,4-dideoxy-1,4-imino-L-allitol], for which the “Inhibition (%)” value in the test with N-acetyl hexosaminidase is recorded as 37%. The results for the inhibition at 1000 µM (in test [1]; at Golgi α-D-mannosidase II) were 13% and 33%, respectively.

On to `OC[C@H](O)[C@@H]1NC[C@@H](O)[C@H]1O` [DIA, 1,4-dideoxy-1,4-imino-L-allitol], for which, in the test with N-acetyl hexosaminidase, the “Inhibition (%)” value is recorded as 42%. In test [1], the “inhibition of lysosomal α-D-mannosidase (in words)” value is reported as “good inhibitor” and testing at 1000 µM gave an inhibition of 84%. Also, in test [1] (pH optimum of 4.0, Dixon graphical procedure), affinity was put at a Ki of 170 µM. Further, on Golgi α-D-mannosidase II, the “inhibition of α-D-mannosidase II (in words)” value is “potent inhibitor” and the inhibition at 1000 µM is 95%.

`OC[C@H](O)[C@H]1[C@H](O)[C@H](O)CN1Cc1ccccc1` [N-benzyl DIA, N-benzyl-1,4-dideoxy-1,4-imino-L-allitol]: the “Inhibition (%)” value in the test with N-acetyl hexosaminidase was 15%. For the same compound, the inhibition at 1000 µM in test [1] is 3%; on Golgi α-D-mannosidase II it was 0%.

By inhibition is commonly meant the change of the read-out against control, counted positive when it falls. A low value points to a weak effect. The Ki is a measure of affinity in units of concentration, obtained from inhibition or displacement. High values mean weaker binding, low ones tighter binding.
